Laboratory results published in US5082937A, “Benzodiazepines and applications in therapeutic practice” (Jouveinal S.A., priority 1989, dated 1992).
Read-outs that look alike come from different tables or passages of the source.

Tests used:
gastrin receptor [1] = biological target: T1, gastrin receptor (Cavia porcellus, UniProt H0VZC5); test: Binding affinity for the gastrin receptor, guinea-pig gastric glands, iodine-125-labelled gastrin
T1 construct: guinea-pig gastric glands; from tissue; host or cells: gastric glands of male guinea pigs (animals from COB LABO)
T1 sequence (H0VZC5 1-426): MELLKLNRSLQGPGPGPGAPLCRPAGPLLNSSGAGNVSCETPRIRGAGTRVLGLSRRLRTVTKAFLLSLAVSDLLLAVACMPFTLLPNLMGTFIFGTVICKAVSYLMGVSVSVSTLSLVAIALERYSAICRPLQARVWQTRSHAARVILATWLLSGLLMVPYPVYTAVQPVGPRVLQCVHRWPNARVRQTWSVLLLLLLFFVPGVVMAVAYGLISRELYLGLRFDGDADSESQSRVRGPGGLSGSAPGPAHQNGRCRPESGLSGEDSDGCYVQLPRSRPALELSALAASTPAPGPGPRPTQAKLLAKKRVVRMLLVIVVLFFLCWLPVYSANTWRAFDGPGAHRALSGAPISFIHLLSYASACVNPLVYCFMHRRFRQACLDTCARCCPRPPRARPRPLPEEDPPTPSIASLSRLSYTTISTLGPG
Source text: (§1) The "in vitro" studies consisted in determining the binding affinity of the compounds of the invention for the cholecystokinin and gastrin receptors.
(§2) The aim of these experiments was to determine the solution concentrations of products of formula (I) which were capable of inhibiting in relation to the receptors in question fifty percent of the cholecystokinin bonds, labelled with […] (abbreviated below as [1251]-CCK8 sulphate) or in the case of the iodine-125-labelled gastrin receptor with the following receptors:
(§3) guinea-pig gastric glands (males, COB LABO, 325-350 g) in accordance with the method described by PRAISSMAN, M., M. E. WALDEN and C. PELLECHIA. Journal of Receptor Research, 1983 3 647-665 (gastrin receptor).
(§4) The unit of measurement is the nanomole.

[2] = biological target: T2, central cholecystokinin receptor: CCK-B (Cavia porcellus, UniProt H0VZC5); test: Binding affinity for the central cholecystokinin receptor (CCK B), guinea-pig brain membranes, inhibition of labelled [125I]-CCK8 sulphate binding
T2 construct: guinea-pig brain membranes; from tissue; host or cells: brain membranes of male guinea pigs (animals from COBLABO)
T2 sequence (H0VZC5 1-426): T1 sequence (H0VZC5 1-426)
Source text: (§5) The "in vitro" studies consisted in determining the binding affinity of the compounds of the invention for the cholecystokinin and gastrin receptors. […]
(§6) guinea-pig brain membranes (males, COBLABO, 325-350 g) (central cholecystokinin receptor: CCK-B).
(§7) in accordance with the experimental protocol described by INNIS, R. B. and S. M. SNYDER, Eur. J. Pharmacol., 1980 65 123-124.
as §4

[3] = biological target: T3, peripheral cholecystokinin receptor: CCK-A (Rattus norvegicus, UniProt P30551); test: Binding affinity for the peripheral cholecystokinin receptor (CCK A), plasma membranes of the rat pancreas, inhibition of labelled [125I]-CCK8 sulphate binding
T3 construct: plasma membranes of the rat pancreas; from tissue; host or cells: pancreas plasma membranes of male SD rats (animals from IFFA CREDO)
T3 sequence (P30551 1-444): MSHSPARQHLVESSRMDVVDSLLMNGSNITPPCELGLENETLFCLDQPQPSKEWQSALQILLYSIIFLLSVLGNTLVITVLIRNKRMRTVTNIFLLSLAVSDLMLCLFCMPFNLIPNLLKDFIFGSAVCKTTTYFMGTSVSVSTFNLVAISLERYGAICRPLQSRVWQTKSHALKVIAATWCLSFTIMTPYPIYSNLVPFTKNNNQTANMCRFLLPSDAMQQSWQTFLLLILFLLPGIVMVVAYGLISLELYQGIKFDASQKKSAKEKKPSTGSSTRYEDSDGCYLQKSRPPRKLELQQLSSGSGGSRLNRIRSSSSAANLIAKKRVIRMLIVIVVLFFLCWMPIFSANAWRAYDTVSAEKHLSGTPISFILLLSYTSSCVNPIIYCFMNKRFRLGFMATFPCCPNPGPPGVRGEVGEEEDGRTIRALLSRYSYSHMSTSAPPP
Source text: as §1, §2
plasma membranes of the rat pancreas (male SD, rats, IFFA CREDO 200-225 g) (peripheral cholecystokinin receptor: CCK-A),
as §7, §4

[4] = system: gastric evacuation, slowed down by CCK-8 (peripheral receptor CCK-A); test: Gastric evacuation slowed down by CCK-8 in the mouse; format: in vivo; conditions: oral; for ED50: Mus musculus, SWISS male mice, CCK-8 80 μg/kg subcutaneous
Description: The antagonist activity of CCK on the digestive motor effects of the hormone has been examined in relation to the gastric evacuation, slowed down by the subcutaneous administration of CCK-8 (80 μg/kg) in SWISS male mice (IFFA CREDO 16-20 g), using the technique described by Lotti, V. J., D. J. Cerino, P. J. Kling and R. S. L. Chang. Life Sciences, 1986 39, 1631-1638.

[5] = system: gastrin-induced acid secretion; test: Gastrin-induced acid secretion in the rat (chronic gastric fistula, pentagastrin perfusion); format: in vivo; conditions: 1 mg/kg oral; for Gastric secretion % inhibition: SD male rat, pentagastrin 6 μg/kg/h i.v.
Description: The activity of the products of the invention in relation to gastrin-induced acid secretion in the rat has been studied by the method described by Pascaud, X. P. , A. R. Roger and M. J. H. Genton. Digestion, […] 16 57-68. The method consists in collecting the gastric acid secretion over two consecutive 2 hour periods in SD male rats (IFFA CREDO 250-300 g), provided with a chronic gastric fistula and continuously perfused i.v. with a pentagastrin solution (Peptavlon, ICI, 6 μg/kg/h). The inhibition of this secretion by the oral administration of 1 mg/kg product of the invention has been determined.

[6] = system: central cholecystokinin receptor: CCK-B; test: Binding affinity for the central cholecystokinin receptor (CCK B), guinea-pig brain membranes, inhibition of labelled [125I]-CCK8 sulphate binding; conditions: for Selectivity CCK B/CCK A: IC50 CCK A / IC50 CCK B
Source text: as §5, §6, §7, §4

gastrin receptor [7] = test: Binding affinity for the gastrin receptor, guinea-pig gastric glands, iodine-125-labelled gastrin; conditions: for Selectivity GASTRIN/CCK A: IC50 CCK A / IC50 gastrin
Source text: as §1, §2, §3, §4

gastrin receptors = conditions: published, in vitro, cited from earlier work
[8] = system: A receptors of cholecystokinin; conditions: published, in vitro; cited from earlier work
[9] = guinea-pig gastric glands; Table I; read-out: IC50 Receptor bond Gastrin
[10] = guinea-pig brain membranes; Table I; read-out: IC50 Receptor bond CCK B
[11] = in comparison with compound XXa

For `Cc1cccc(NC(=O)NC2N=C(c3ccccc3)c3cccc4c3N(CC4)C2=O)c1` (racemic) [Example 1, (4R,S)-N-(keto-3-phenyl-6-tetrahydro-1,2,3,4-pyrrolo[3,2,1-j,k]benzodiazepine[1,4]-yl-4)-N'-(methyl-3-phenyl-)-urea], the IC50 (gastrin receptor [1]; [9]) was 14.4 nM, the IC50 [2, 10] was 431 nM and the IC50 [3] was 59.6 nM.

With `Cc1cccc(NC(=O)NC2N=C(c3ccccc3)c3cccc4c3N(CCC4)C2=O)c1` (racemic) [Example 5, (5R,S)-N-(keto-4-phenyl-7-hexahydro-1,2,3,3a,4,5-pyrido [3,2,1-j,k]benzodiazepine-[1,4]-yl-5)-N'-(methyl-3-phenyl-)-urea] the IC50 (gastrin receptor [1]; [9]) was 1.5 nM, the “times less active on the gastrin receptor than XXa” value (shortened to “times less active”) (gastrin receptor [1]; [11]) was 3 times and the “activity compared with reference compound XXa (gastrin-specific compounds)” value (gastrin receptor [1]; in words) was “similar”. The IC50 [2, 10] was 251 nM and the IC50 [3] was 84.2 nM.

`O=C(Nc1ccc([N+](=O)[O-])cc1)NC1N=C(c2ccccc2)c2cccc3c2N(CCC3)C1=O` (racemic) [Example 8, (5R,S)-N-(keto-4-phenyl-7-hexahydro-1,2,3,3a,4,5-pyrido[3,2,1-j,k]benzodiazepine-[1,4]-yl-5)-N'-(nitro-4-phenyl-)-urea] showed an IC50 (gastrin receptor [1]; [9]) of 60 nM, an IC50 [2, 10] of 1810 nM and an IC50 [3] of 3080 nM.

For `O=C1C(NC(=S)Nc2ccc(Br)cc2)N=C(c2ccccc2)c2cccc3c2N1CCC3` (racemic) [Example 10, (5R,S)-N-(keto-4-phenyl-7-hexahydro-1,2,3,3a,4,5-pyrido[3,2,1-j-k]benzodiazepine-[1,4]-yl-5)-N'-(bromo-4-phenyl-)-thiourea], the IC50 (gastrin receptor [1]; [9]) was 3.2 nM, the “times less active” value (gastrin receptor [1]; [11]) was 1.5 times and the “activity compared with reference compound XXa (gastrin-specific compounds)” value (gastrin receptor [1]; in words) was “similar”. The ED50 [4] was 15.5 mg/kg, the “times more product required than XXa for 50% reduction of the inhibiting effects of CCK-8 on gastric evacuation” value ([4]; in comparison with XXa) was 100 times and the “Gastric secretion % inhibition” value [5] was 31%. For the same compound, the “inhibiting activity on gastrin-induced acid secretion compared with XXa” value ([5]; in words) was “identical”, the IC50 [2, 10] was 88 nM and the IC50 [3] was 3040 nM.

For `O=C(Nc1cnc2ccccc2c1)NC1N=C(c2ccccc2)c2cccc3c2N(CCC3)C1=O` (racemic) [Example 23, (5R,S)-N-(keto-4-phenyl-7-hexahydro-1,2,3,3a,4,5-pyrido[3,2,1-j,k]benzodiazepine[1,4]-yl-5)-N'-(quinolinyl-3-)-urea], the IC50 (gastrin receptor [1]; [9]) was 298 nM, the “times less active” value (gastrin receptor [1]; [11]) was ~60 times and the IC50 [2, 10] was 176 nM. For the same compound, the “factor less active on the CCK B receptor than XXa” value [2, 11] was 2 factor, the “higher selectivity for the CCK B receptor than XXa” value [6, 11] was ~30 times and the IC50 [3] was 389 nM.

In the case of `O=C1C(NC(=S)Nc2ccc(Br)cc2)N=C(c2ccccc2)c2cccc3c2N1CCC3` (stereo in doubt) [Example 26, (5S)-N-(keto-4-phenyl-7-hexahydro-1,2,3,3a,4,5-pyrido[3,2,1-j,k]benzodiazepine[1,4]-yl-4)-N'-(bromo-4-phenyl-)-thiourea], the IC50 (gastrin receptor [1]; [9]) is reported as 36 nM, the “Selectivity GASTRIN/CCK A” value (gastrin receptor [7]) is reported as > 250 and the IC50 [2, 10] is reported as 137 nM. The “Selectivity CCK B/CCK A” value [6] was > 70 and the IC50 [3] was > 10000 nM.

For `Cc1cccc(NC(=O)N[C@@H]2N=C(c3ccccc3)c3cccc4c3N(CC4)C2=O)c1` [Example 2, (4R)-N-(keto-3-phenyl-6-tetrahydro-1,2,3,4-pyrrolo[3,2,1-j,k]benzodiazepine-[1,4]-yl-4)-N'-(methyl-3-phenyl-)-urea], the IC50 (gastrin receptor [1]; [9]) was 85.9 nM, the “times less active” value (gastrin receptor [1]; [11]) was 20 times and the IC50 [2, 10] was 99.9 nM. The “activity on the CCK B receptor compared with XXa” value ([2]; in words) was “of the same order”, the IC50 [3] was 1020 nM and the “activity on the CCK A receptor compared with XXa” value ([3]; in words) was “of the same order”.

Work on `Cc1cccc(NC(=O)N[C@@H]2N=C(c3ccccc3)c3cccc4c3N(CCC4)C2=O)c1` [Example 7, (+)-(5R)-N-(keto-4-phenyl-7-hexahdyro-1,2,3,3a,4,5-pyrido [3,2,1-j,k]benzodiazepine[1,4]-yl-5)-N'-(methyl-3-phenyl-)-urea] yielded an IC50 (gastrin receptor [1]; [9]) of 40.5 nM, an IC50 [2, 10] of 255 nM and an IC50 [3] of 1730 nM.

For `Cc1cccc(NC(=O)N[C@@H]2N=C(c3ccccc3)c3ccccc3N(C)C2=O)c1` [XXa, reference compound], the IC50 (gastrin receptor [1]; read-out: IC50 Receptor bond Gastrin; guinea-pig gastric glands; Table I) was 4.7 nM, the “Selectivity GASTRIN/CCK A” value (gastrin receptor [7]) was 302 and the “CCK-A/gastrin activity ratio reproduced by the Applicant (times more favourable to gastrin receptors)” value (gastrin receptor [7]; ratio 1419/4.7) was “about 300 times”. The “gastrin activity, term of the CCK-A/gastrin ratio” value (gastrin receptors) was 1.9, the “CCK-A/gastrin activity ratio (times more favourable to gastrin receptors)” value (gastrin receptors; ratio 290/1.9) was “about 150 times” and the ED50 [4] was 0.15 mg/kg. For the same compound, the “CCK-A activity, term of the CCK-A/gastrin ratio” value [8] was 290, the “Gastric secretion % inhibition” value [5] was 29% and the IC50 ([2]; read-out: IC50 Receptor bond CCK B; guinea-pig brain membranes; Table I) was 81.4 nM. For the same compound, the “Selectivity CCK B/CCK A” value [6] was 17 and the IC50 ([3]; rat pancreas plasma membranes, Table I, read-out: IC50 Receptor bond CCK A) was 1420 nM.
